Measured values: US20230398115A1, “MDM2 INHIBITORS AND COMBINATIONS THEREOF” (Novartis AG, priority 2015, published 2023)

What was measured:
LS-180 [1] = assay: Cell proliferation, cell count by microscopy (Example 1); assay type: cell-based; conditions: ls180, single agent, 72 h treatment, cell count relative to DMSO
Method: (§1) To test the effect of the combination of COMPOUND A or COMPOUND B with COMPOUND C on cell proliferation cells were plated in black 384-well microplates with clear bottom (Matrix/Thermo Scientific, Catalog number 4332) in 50 ul media per well at cell densities between 500 and 1250 cells/well (Table 1) and allowed to incubate at 37 degrees, 5% CO2 for 24 h. After 24 h one 384-well plate per cell line was prepared for cell counting by microscopy (see below) without receiving treatment (=‘baseline’). The other cell plates were treated using a HP D300 Digital Dispenser (Tecan) generating 6-point dose response curves with 2.5× dilution steps.
(§2) COMPOUND A was used over a final concentration range of 51 nM-5 uM, COMPOUND B over a final concentration range of 10 nM-1 uM, and COMPOUND C over a final concentration range of 1 nM-100 nM.
(§3) For the combinations of COMPOUND A or COMPOUND B with COMPOUND C the single agents were combined at 6 single agent doses generating a dose matrix of 6×6=36 combination treatments. Additionally, negative controls (DMSO=‘vehicle’) and positive controls (Staurosporine=killing cells, 7-point 1:2 dilution series for a dose range of 16 nm-1 uM) were transferred as treatment controls. Cells were treated for 72 h to 96 h depending on their doubling time (Table 1). At the end of the treatment cells were prepared for cell counting by microscopy. Cells were fixed and permeabilised for 45 minutes in 4% PFA (Electron Microscopy Sciences, Catalog number 15714), 0.12% TX-100 (Electron Microscopy Sciences, Catalog number 22140) in PBS (Boston Bioproducts, Catalog number BM-220). After washing cells three times with PBS their DNA was stained for 30 minutes with Hoechst 33342 (ThermoFisher, Catalog number H3570) at a final concentration of 4 μg/ml. Cells were washed three times with PBS and then plates were heat-sealed using a PlateLoc (Agilent Technologies) with aluminum seals (Agilent Technologies, Catalog number 06644-001) and stored at 4° C. until imaging. All cells per well/treatment were captured in a single image by fluorescence microscopy using an InCell Analyzer 2000 (GE Healthcare) equipped with a 4× objective and DAPI excitation/emission filters.
(§4) Images were analyzed after adapting previously described methods (Horn, Sandmann et al. 2011) and using the Bioconductor package EBimage in R (Pau, Fuchs et al. 2010). Objects in both channels, DAPI (for Hoechst/DNA) and FITC (for Caspase 3/7), were segmented separately by adaptive thresholding and counted. A threshold for Caspase 3/7 positive objects was defined manually per cell line after comparing negative controls (DMSO) and positive controls (Staurosporine). By analyzing 17 additional object/nuclei features in the DNA channel (shape and intensity features) debris/fragmented nuclei were identified. To this end per cell line the distributions of the additional features between positive controls (Staurosporine) and negative controls (DMSO) were compared manually. Features that could differentiate between the conditions (e.g. a shift in the distribution of a feature measurement comparing DMSO with Staurosporine) where used to define the ‘debris’ population versus the population of ‘viable’ nuclei. The debris counts were subtracted from raw nuclei counts. The resulting nuclei number was used as measure of cell proliferation (‘cell count’).
(§5) The compound's effect on cell proliferation was calculated from the cell counts of the treatments relative to the cell counts of the negative control (DMSO), in FIGS. 1 and 2 denoted as ‘Normalized cell count’ on the y-axis.

LoVo [2] = assay: as above; assay type: cell-based; conditions: single agent, 96 h treatment, cell count relative to DMSO
Method: as §1, §2, §3, §4, §5

LIM2405 = assay: as above; assay type: cell-based; conditions: single agent, 72 h treatment, cell count relative to DMSO
Method: as §1, §2, §3, §4, §5

GP2d [3] = assay: as above; assay type: cell-based; conditions: single agent, 72 h treatment, cell count relative to DMSO
Method: as §1, §2, §3, §4, §5

SW48 = assay: as above; assay type: cell-based; conditions: single agent, 96 h treatment, cell count relative to DMSO
Method: as §1, §2, §3, §4, §5

COLO-678 = assay: as above; assay type: cell-based; conditions: colo678, single agent, 96 h treatment, cell count relative to DMSO
Method: as §1, §2, §3, §4, §5

RKO [4] = assay: as above; assay type: cell-based; conditions: single agent, 72 h treatment, cell count relative to DMSO
Method: as §1, §2, §3, §4, §5

HCT-116 xenografts = assay: HCT-116 xenograft in nude mice, tumor volume; assay type: in vivo; conditions: for effect of sequential addition on tumor volume: day 19
Method: All animal experiments were done in strict adherence to the Swiss law for animal protection. Female Crl:NU(NCr)-Foxn1nu mice were purchased from Charles River Laboratories International Inc (Germany) and kept in a pathogen-controlled environment. Subcutaneous tumors of HCT-116 (KRAS mutant, PIK3CA mutant, p53 wild-type) were induced by concentrating 3 million cells in 100 μl of PBS and injecting them in the right flank of nude mice. The mice were randomly grouped, and treatment was started when the tumor size reached 50 to 250 mm3. Each cohort included 8 mice. Tumor sizes were monitored three times weekly, and volumes were calculated with the following formula: (mm3)=length×width2×0.5.
COMPOUND A was dissolved in 0.5% hydroxypropyl methylcellulose, COMPOUND B was dissolved in 1% carboxymethylcellulose containing 0.5% Tween-80% in distilled water (pH7.6-8.0), and COMPOUND C was dissolved in Microemulsion pre-concentrate 5. All drugs were dosed orally using 5-10 ml/kg. COMPOUND A was administered three times a week (3qw) at 100 mg/kg. COMPOUND B and COMPOUND C were administered daily (q24 h) at 0.3 and 100 mg/kg, respectively. The combination dosing schedule and dosage were the same as the single reagents.
Six treatment cohorts (G1-G6) were tested: • G1: vehicle (DMSO) • G2: COMPOUND C • G3: COMPOUND A=>after 9 days treatment COMPOUND C was added • G4: COMPOUND B=>after 9 days treatment COMPOUND C was added • G5: COMPOUND A+COMPOUND B=>after 9 days treatment COMPOUND C was added • G6: COMPOUND A+COMPOUND B+COMPOUND C
For each tumor at each time-point the size was normalized to the size before the start of the treatment to obtain the “% Change tumor volume” (FIG. 17-18, y-axis). For FIG. 17 at each time point the mean size of all tumors per cohort was calculated, and the error of the size using the standard error of the mean (SEM). For FIG. 18 p-values were calculated using a one-tailed t test.

LS-180 [5] = assay: Cell proliferation, cell count by microscopy, HSA synergy (Examples 2-9); assay type: cell-based; conditions: 72 h, cell count relative to DMSO
Method: (§6) After 24 h one 384-well plate per cell line was prepared for cell counting by microscopy (see below) without receiving treatment (=‘baseline’). The other cell plates were treated by transferring 25 nl of the 2000× compound from drug master plates using an ATS acoustic liquid dispenser (ECD Biosystems) and resulting in a final 1× concentration. COMPOUND A was used over a final concentration range of 13 nM-10 µM, COMPOUND B was used over a final concentration range of 13 nM-10 uM, and COMPOUND C was used over a final concentration range of 0.4 nM-0.3 µM (7 1:3 dilution steps). In order to assess the effect of the triple combination all individual COMPOUNDS (A, B, C), all three pair wise combinations (A+B, A+C, B+C), and the triple combination (A+B+C) were tested in the same experiment. Pair wise combinations and the triple combination were tested at a fixed ratio of 1:1 (for drug pairs) and 1:1:1 (for the drug triple) at each dilution resulting in 7 combination conditions per treatment. […] After compound addition 50 nl of 2 mM CellEvent Caspase-3/7 Green Detection Reagent (ThermoFisher, Catalog number C10423) were added to one of the three replicates using the HP D300 Digital Dispenser (Tecan). Caspase 3/7 induction was measured as a proxy for apoptosis induced by the treatments. Cells were treated for 72 h to 96 h depending on their doubling time (Table 4), and Caspase 3/7 activation was measured every 24 h by microscopy using an InCell Analyzer 2000 (GE Healthcare) equipped with a 4× objective and FITC excitation/emission filters. At the end of the treatment cells were prepared for cell counting by microscopy. Cells were fixed and permeabilised for 45 minutes in 4% PFA (Electron Microscopy Sciences, Catalog number 15714), 0.12% TX-100 (Electron Microscopy Sciences, Catalog number 22140) in PBS (Boston Bioproducts, Catalog number BM-220). After washing cells three times with PBS their DNA was stained for 30 minutes with Hoechst 33342 (ThermoFisher, Catalog number H3570) at a final concentration of 4 μg/ml. Cells were washed three times with PBS and then plates were heat-sealed using a PlateLoc (Agilent Technologies) with aluminum seals (Agilent Technologies, Catalog number 06644-001) and stored at 4° C. until imaging. All cells per well/treatment were captured in a single image by fluorescence microscopy using an InCell Analyzer 2000 (GE Healthcare) equipped with a 4× objective and DAPI excitation/emission filters.
as §4
(§7) The compound's effect on cell proliferation was calculated from the cell counts of the treatments relative to the cell counts of the negative control (DMSO), in FIG. 9 denoted as ‘Normalized cell count’ (=‘xnorm’) on the y-axis. Synergistic combinations were identified using the highest single agent model (HSA) as null hypothesis (Berenbaum 1989).

LoVo [6] = assay: as above; assay type: cell-based; conditions: Example 2, single agent, 96 h, cell count relative to DMSO
Method: as §6, §4, §7

GP2d [7] = assay: as above; assay type: cell-based; conditions: Example 2, single agent, 72 h, cell count relative to DMSO
Method: as §6, §4, §7

HCT-116 = assay: as above; assay type: cell-based; conditions: 72 h, cell count relative to DMSO
Method: as §6, §4, §7

RKO [8] = assay: as above; assay type: cell-based; conditions: 72 h, cell count relative to DMSO
Method: as §6, §4, §7

Q: `CC(=O)Nc1cccc(-n2c(=O)n(C3CC3)c(=O)c3c(Nc4ccc(I)cc4F)n(C)c(=O)c(C)c32)c1` [trametinib, N-(3-{3-cyclopropyl-5-[(2-fluoro-4-iodophenyl)amino]-6,8-dimethyl-2,4,7-trioxo-3,4,6,7-tetrahydropyrido[4,3-d]pyrimidin-1(2H)-yl}phenyl)acetamide] was tested. Which IC75 (LS-180 [1]) did it give?
A: The IC75 was 0.014.

Q: And the IC75 (LoVo [2])?
A: The IC75 was 0.018.

Q: What about the IC75 (LIM2405) of the same compound?
A: Its IC75 is 0.008.

Q: And the IC75 (GP2d [3])?
A: The IC75 was greater than 0.1.

Q: What about the IC75 (SW48) of the same compound?
A: Its IC75 is 0.003.

Q: And the IC75 (COLO-678)?
A: Its IC75 is greater than 0.1.

Q: What about the IC75 (RKO [4]) of the same compound?
A: The IC75 was greater than 0.1.

Q: And the “tumor response (% change tumor volume)” value (HCT-116 xenografts; nude mice, oral, COMPOUND A 100 mg/kg 3qw, trametinib 0.3 mg/kg q24h, ABT-263 100 mg/kg q24h, 9 days of treatment)?
A: The value was “progressive disease”.

Q: With `CC1(C)CCC(c2ccc(Cl)cc2)=C(CN2CCN(c3ccc(C(=O)NS(=O)(=O)c4ccc(N[C@H](CCN5CCOCC5)CSc5ccccc5)c(S(=O)(=O)C(F)(F)F)c4)cc3)CC2)C1` [COMPOUND C] as the compound, how does the IC50 (LS-180 [5]; Example 2, single agent) read?
A: The IC50 was greater than 10 µM.

Q: What about the IC50 (LS-180 [5]; Example 3, single agent) of the same compound?
A: The IC50 was greater than 10 µM.

Q: What about the IC50 (LS-180 [5]; Example 4, single agent) of the same compound?
A: The IC50 was greater than 10 µM.

Q: What about the IC50 (LoVo [6]) of the same compound?
A: Its IC50 is greater than 10 µM.

Q: And the IC50 (GP2d [7])?
A: The IC50 was greater than 10 µM.

Q: What about the IC50 (HCT-116; Example 2, single agent) of the same compound?
A: The IC50 was greater than 10 µM.

Q: What about the IC50 (HCT-116; Example 3, single agent) of the same compound?
A: Its IC50 is greater than 10 µM.

Q: And the IC50 (HCT-116; Example 4, single agent)?
A: The IC50 was greater than 10 µM.

Q: What about the IC50 (RKO [8]; Example 2, single agent) of the same compound?
A: The IC50 was greater than 10 µM.

Q: And the IC50 (RKO [8]; Example 3, single agent)?
A: The IC50 was greater than 10 µM.

Q: What about the IC50 (RKO [8]; Example 4, single agent) of the same compound?
A: Its IC50 is greater than 10 µM.

Q: Which results are given for `CC1(C)CCC(c2ccc(Cl)cc2)=C(CN2CCN(c3ccc(C(=O)NS(=O)(=O)c4ccc(N[C@H](CCN5CCOCC5)CSc5ccccc5)c(S(=O)(=O)C(F)(F)F)c4)cc3)CC2)C1` [ABT-263]?
A: effect of sequential addition on tumor volume (HCT-116 xenografts; ABT-263 100 mg/kg q24h added after 9 days to single agent COMPOUND A (G3)): no additional benefit; effect of sequential addition on tumor volume (HCT-116 xenografts; ABT-263 100 mg/kg q24h added after 9 days to single agent trametinib (G4)): stopped tumor progression; effect of sequential addition on tumor volume (HCT-116 xenografts; ABT-263 100 mg/kg q24h added after 9 days to the combination of COMPOUND A and trametinib (G5)): marked tumor regressions
